Biological target: T1, GLP-1R (Homo sapiens, UniProt P43220)
T1 construct: host or cells: CHO cells
Assay: GLP-1R activation cAMP assay (Assay 1 or Assay 2)
Type: cell-based
Settings: cAMP increase in CHO cells stably expressing GLP-1R; compounds run on one of the two cAMP assays
Procedure, shortened: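 CHO cells stably expressing human GLP-1R were incubated 1 h in HBSS/20 mM HEPES/0.1% BSA, then exposed to 10-point agonist dilutions for 30 min at 37 °C. cAMP increase was measured with an HTRF Gs dynamic kit; EC50 from sigmoidal fit of response versus log concentration.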

T1 sequence (P43220 24-463): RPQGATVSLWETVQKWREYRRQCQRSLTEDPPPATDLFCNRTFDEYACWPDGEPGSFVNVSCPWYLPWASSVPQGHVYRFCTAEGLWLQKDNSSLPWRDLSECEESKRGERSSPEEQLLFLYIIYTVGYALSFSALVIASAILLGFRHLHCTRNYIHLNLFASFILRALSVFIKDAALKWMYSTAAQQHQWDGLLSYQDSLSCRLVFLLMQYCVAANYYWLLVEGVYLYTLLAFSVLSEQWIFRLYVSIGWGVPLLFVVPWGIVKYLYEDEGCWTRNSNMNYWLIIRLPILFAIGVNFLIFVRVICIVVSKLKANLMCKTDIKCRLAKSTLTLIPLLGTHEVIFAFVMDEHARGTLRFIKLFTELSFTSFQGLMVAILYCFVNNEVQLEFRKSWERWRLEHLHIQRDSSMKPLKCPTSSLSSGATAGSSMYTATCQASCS

Question: For `Cn1cc(C#Cc2cnc(COc3cccc(-c4cc(F)c(Cc5nc6ccc(C(=O)O)cc6n5C[C@@H]5CCO5)cc4F)n3)nc2)cn1` [Example 154, (S)-2-(2,5-difluoro-4-(6-((5-((1-methyl-1H-pyrazol-4-yl)ethynyl)pyrimidin-2-yl)methoxy)pyridin-2-yl)benzyl)-1-(oxetan-2-ylmethyl)-1H-benzo[d]imidazole-6-carboxylic acid], which EC50 is on record?
Answer: Its EC50 is 0.52 nM.

Question: How did the EC50 turn out when `Cn1cc(C#Cc2cnc(COc3cccc(-c4cc(F)c(Cc5nc6ccc(C(=O)O)cc6n5C[C@@H]5CCO5)cc4F)n3)cn2)cn1` [Example 155, (S)-2-(2,5-difluoro-4-(6-((5-((1-methyl-1H-pyrazol-4-yl)ethynyl)pyrazin-2-yl)methoxy)pyridin-2-yl)benzyl)-1-(oxetan-2-ylmethyl)-1H-benzo[d]imidazole-6-carboxylic acid] was run?
Answer: The EC50 was 0.83 nM.

Question: `Cn1cncc1C#Cc1cnc(COc2cccc(-c3cc(F)c(Cc4nc5ccc(C(=O)O)cc5n4C[C@@H]4CCO4)cc3F)n2)cn1` [Example 156, (S)-2-(2,5-difluoro-4-(6-((5-((1-methyl-1H-imidazol-5-yl)ethynyl)pyrazin-2-yl)methoxy)pyridin-2-yl)benzyl)-1-(oxetan-2-ylmethyl)-1H-benzo[d]imidazole-6-carboxylic acid] was tested. Which EC50 did it give?
Answer: Its EC50 is 1.19 nM.

Question: Which EC50 does the source give for `N#CC1(Cn2cc(-c3ccc(COc4cccc(-c5cc(F)c(Cc6nc7ccc(C(=O)O)cc7n6C[C@@H]6CCO6)cc5F)n4)c(F)c3)cn2)CC1` [Example 159, (S)-2-(4-(6-((4-(1-((1-cyanocyclopropyl)methyl)-1H-pyrazol-4-yl)-2-fluorobenzyl)oxy)pyridin-2-yl)-2,5-difluorobenzyl)-1-(oxetan-2-ylmethyl)-1H-benzo[d]imidazole-6-carboxylic acid] here?
Answer: Its EC50 is 0.18 nM.

Question: `O=C(O)c1ccc2nc(Cc3cc(F)c(-c4cccc(OCc5ccc(-c6cnc(C7CC7)o6)cc5F)n4)cc3F)n(C[C@@H]3CCO3)c2c1` [Example 160, (S)-2-(4-(6-((4-(2-cyclopropyloxazol-5-yl)-2-fluorobenzyl)oxy)pyridin-2-yl)-2,5-difluorobenzyl)-1-(oxetan-2-ylmethyl)-1H-benzo[d]imidazole-6-carboxylic acid] was tested. Which EC50 did it give?
Answer: The EC50 was 0.2 nM.

Question: For `O=C(O)c1ccc2nc(Cc3cc(F)c(-c4cccc(OCc5cnc(-c6cnn(C7CC7)c6)cc5F)n4)cc3F)n(C[C@@H]3CCO3)c2c1` [Example 161, (S)-2-(4-(6-((6-(1-cyclopropyl-1H-pyrazol-4-yl)-4-fluoropyridin-3-yl)methoxy)pyridin-2-yl)-2,5-difluorobenzyl)-1-(oxetan-2-ylmethyl)-1H-benzo[d]imidazole-6-carboxylic acid], which EC50 is on record?
Answer: The EC50 was 0.08 nM.

Question: For `O=C(O)c1ccc2nc(Cc3cc(F)c(-c4cccc(OCc5cnc(-c6cnn(C7COC7)c6)cc5F)n4)cc3F)n(C[C@@H]3CCO3)c2c1` [Example 162, (S)-2-(2,5-difluoro-4-(6-((4-fluoro-6-(1-(oxetan-3-yl)-1H-pyrazol-4-yl)pyridin-3-yl)methoxy)pyridin-2-yl)benzyl)-1-(oxetan-2-ylmethyl)-1H-benzo[d]imidazole-6-carboxylic acid], which EC50 is on record?
Answer: The EC50 was 0.16 nM.

Question: `Cc1cc(Cc2nc3c(F)cc(C(=O)O)cc3n2C[C@@H]2CCO2)c(F)cc1-c1cccc(OCc2cnc(-c3cnn(C4CC4)c3)cc2Cl)n1` [Example 163, (S)-2-(4-(6-((4-chloro-6-(1-cyclopropyl-1H-pyrazol-4-yl)pyridin-3-yl)methoxy)pyridin-2-yl)-2-fluoro-5-methylbenzyl)-4-fluoro-1-(oxetan-2-ylmethyl)-1H-benzo[d]imidazole-6-carboxylic acid] was tested. Which EC50 did it give?
Answer: The EC50 was 0.7 nM.

Question: Which EC50 does the source give for `O=C(O)c1ccc2nc(Cc3cc(F)c(-c4cccc(OCc5ccc(-c6cnn(C7COC7)c6)cc5F)n4)cc3F)n(C[C@@H]3CCO3)c2c1` [Example 164, (S)-2-(2,5-difluoro-4-(6-((2-fluoro-4-(1-(oxetan-3-yl)-1H-pyrazol-4-yl)benzyl)oxy)pyridin-2-yl)benzyl)-1-(oxetan-2-ylmethyl)-1H-benzo[d]imidazole-6-carboxylic acid] here?
Answer: The EC50 was 0.1 nM.

From patent US20250312352A1, “GLP-1R MODULATING COMPOUNDS” (Gilead Sciences, Inc., priority 2021, published 2025)
